Source: patent publication US20190100534A1, “Cephem Compounds with Latent Reactive Groups” (Gladius Pharmaceuticals, Inc., priority 2017, published 2019)

Assays:
[1] = tested on: KP (GJ 5659 TEM-26); experiment: MIC determination; format: cell-based, Klebsiella pneumoniae; settings: CAMH broth, 20 μM Apo-Transferrin, 37° C., 18 hours
Method in brief: (§1)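 Values come from a visual broth microdilution read: the first transparent well at the lowest drug level defines MIC. Inocula were standardized to 0.5 McFarland units, and the medium was CAMH with 20 μM apo-transferrin. Plates incubated overnight, 18 h, at 37 °C.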

[2] = tested on: KP(JMI KPC-2); experiment: MIC determination; format: cell-based, Klebsiella pneumoniae; settings: CAMH broth, 20 μM Apo-Transferrin, 37° C., 18 hours
Method in brief: as §1

[3] = tested on: KP(GJ 5934 TEM-26); experiment: MIC determination; format: cell-based, Klebsiella pneumoniae; settings: CAMH broth, 20 μM Apo-Transferrin, 37° C., 18 hours
Method in brief: as §1

[4] = tested on: KP (URMC-2); experiment: MIC determination; format: cell-based, Klebsiella pneumoniae; settings: CAMH broth, 20 μM Apo-Transferrin, 37° C., 18 hours
Method in brief: as §1

[5] = tested on: KP (URMC-3); experiment: MIC determination; format: cell-based, Klebsiella pneumoniae; settings: CAMH broth, 20 μM Apo-Transferrin, 37° C., 18 hours
Method in brief: as §1

[6] = tested on: KP (ATCC KPC-3); experiment: MIC determination; format: cell-based, Klebsiella pneumoniae; settings: CAMH broth, 20 μM Apo-Transferrin, 37° C., 18 hours
Method in brief: as §1

[7] = tested on: KP (RR -1); experiment: MIC determination; format: cell-based, Klebsiella pneumoniae; settings: CAMH broth, 20 μM Apo-Transferrin, 37° C., 18 hours
Method in brief: as §1

[8] = tested on: KP (URMC-1); experiment: MIC determination; format: cell-based, Klebsiella pneumoniae; settings: CAMH broth, 20 μM Apo-Transferrin, 37° C., 18 hours
Method in brief: as §1

[9] = tested on: ENC (ATCC NDM-1); experiment: MIC determination; format: cell-based, Enterobacter cloacae; settings: CAMH broth, 20 μM Apo-Transferrin, 37° C., 18 hours
Method in brief: as §1

[10] = tested on: Isogenic E. coli J58 strain carrying SHV-1; experiment: MIC determination, isogenic E. coli strains; format: cell-based
Method in brief: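 MIC is the lowest compound concentration leaving a transparent well after overnight (18 h) incubation at 37 °C. The test strain was E. coli J53 expressing plasmid-borne SHV-1 beta-lactamase from pBC-SK(+), adjusted to 0.5 McFarland. Compounds were twofold serially diluted, starting at 64 μg/mL, in CAMH broth supplemented with 20 μM apo-transferrin.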

[11] = tested on: Isogenic E. coli J58 strain carrying KPC-3; experiment: MIC determination, isogenic E. coli strains; format: cell-based
Method in brief: (§2)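 Broth microdilution in cation-adjusted Mueller-Hinton broth with 20 μM apo-transferrin, compound at 64 down to […], inoculum set to 0.5 McFarland. E. coli J53 transformed with pBC-SK(+) carrying the synthetic beta-lactamase gene was used. Plates were incubated 18 h at 37 °C; MIC is the lowest concentration giving a clear well.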

[12] = tested on: Isogenic E. coli J58 strain carrying KPC-2; experiment: MIC determination, isogenic E. coli strains; format: cell-based
Method in brief: as §2

[13] = tested on: Pseudomonas aeruginosa PA-RR-(purple Fre D); experiment: MIC determination; format: cell-based; settings: CAMH broth, 20 μM Apo-Transferrin, 37° C., 18 hours
Method in brief: as §1

[14] = tested on: Pseudomonas aeruginosa PA-RR-(G8062859); experiment: MIC determination; format: cell-based; settings: PA-RR-(G8062859), CAMH broth, 20 μM Apo-Transferrin, 37° C., 18 hours
Method in brief: as §1

[15] = tested on: KP(ATCC TEM-10/TEM-12); format: cell-based, Klebsiella pneumoniae; settings: CAMH broth, 20 μM Apo-Transferrin, 37° C., 18 hours
Method in brief: as §1

[16] = tested on: Isogenic E. coli J58 strain carrying IMP-1; experiment: MIC determination, isogenic E. coli strains; format: cell-based; settings: for MICs for an E. coli strain carrying the gene for carbapenemase IMP-1, in words: review of Tables 4-1 and 4-2
Method in brief: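 Broth microdilution in cation-adjusted Mueller-Hinton broth with 20 μM apo-transferrin, compound serially diluted two-fold from 64 μg/mL, against E. coli J53 carrying plasmid-borne IMP-1. Inoculum adjusted to 0.5 McFarland; plates incubated 18 h at 37° C. MIC taken as lowest concentration giving a clear well.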

[17] = tested on: PM (RR -1); experiment: MIC determination; format: cell-based, Proteus mirabilis; settings: CAMH broth, 20 μM Apo-Transferrin, 37° C., 18 hours
Method in brief: as §1

[18] = tested on: EC (RR -2); experiment: MIC determination; format: cell-based, Escherichia coli; settings: CAMH broth, 20 μM Apo-Transferrin, 37° C., 18 hours
Method in brief: as §1

[19] = tested on: EC (URMC-2); experiment: MIC determination; format: cell-based, Escherichia coli; settings: CAMH broth, 20 μM Apo-Transferrin, 37° C., 18 hours
Method in brief: as §1

[20] = tested on: EC(ATCC NDM-1); experiment: MIC determination; format: cell-based, Escherichia coli; settings: CAMH broth, 20 μM Apo-Transferrin, 37° C., 18 hours
Method in brief: as §1

[21] = tested on: EC (URMC-1); experiment: MIC determination; format: cell-based, Escherichia coli; settings: CAMH broth, 20 μM Apo-Transferrin, 37° C., 18 hours
Method in brief: as §1

[22] = tested on: EC(JMI OXA-48); experiment: MIC determination; format: cell-based, Escherichia coli; settings: CAMH broth, 20 μM Apo-Transferrin, 37° C., 18 hours
Method in brief: as §1

[23] = tested on: EC (URMC-3); experiment: MIC determination; format: cell-based, Escherichia coli; settings: CAMH broth, 20 μM Apo-Transferrin, 37° C., 18 hours
Method in brief: as §1

[24] = tested on: EC(KB2 CTX-M-15); experiment: MIC determination; format: cell-based, Escherichia coli; settings: CAMH broth, 20 μM Apo-Transferrin, 37° C., 18 hours
Method in brief: as §1

[25] = tested on: EC (RR -1); experiment: MIC determination; format: cell-based, Escherichia coli; settings: CAMH broth, 20 μM Apo-Transferrin, 37° C., 18 hours
Method in brief: as §1

[26] = tested on: EC(KB1 CTX-M-15); experiment: MIC determination; format: cell-based, Escherichia coli; settings: CAMH broth, 20 μM Apo-Transferrin, 37° C., 18 hours
Method in brief: as §1

| SMILES | Minimum Inhibitory Concentrations, KP (GJ 5659 TEM-26) [1] | Minimum Inhibitory Concentrations, KP(JMI KPC-2) [2] | Minimum Inhibitory Concentrations, KP(GJ 5934 TEM-26) [3] | Minimum Inhibitory Concentrations, KP (URMC-2) [4] | Minimum Inhibitory Concentrations, KP (URMC-3) [5] | Minimum Inhibitory Concentrations, KP (ATCC KPC-3) [6] | Mimimum Inhibitory Concentrations, KP (RR -1) [7] | Minimum Inhibitory Concentrations, KP (URMC-1) [8] | Mimimum Inhibitory Concentrations, ENC (ATCC NDM-1) [9] | Minimum Inhibitory Concentrations, KP(ATCC TEM-10/TEM-12) [15] | MICs for an E. coli strain carrying the gene for carbapenemase IMP-1, in words [16] | Mimimum Inhibitory Concentrations, PM (RR -1) [17] | Mimimum Inhibitory Concentrations, EC (RR -2) [18] | Mimimum Inhibitory Concentrations, EC (RR -1) [25] | further results |
| --- | --- | --- | --- | --- | --- | --- | --- | --- | --- | --- | --- | --- | --- | --- | --- |
| CC(C)(O/N=C(\C(=O)N[C@@H]1C(=O)N2C(C(=O)O)=C(C=Cc3ccc(C[n+]4ccc5cc(O)c(O)cc5c4)cc3)CS[C@H]12)c1csc(N)n1)C(=O)O (mixture of isomers) [Compound 435, 2-(4-((E/Z)-2-((6R,7R)-7-((Z)-2-(2-aminothiazol-4-yl)-2-(((2-carboxypropan-2-yl)oxy)imino)acetamido)-2-carboxy-8-oxo-5-thia-1-azabicyclo[4.2.0]oct-2-en-3-yl)vinyl)benzyl)-6,7-dihydroxyisoquinolin-2-ium] | 0.13 microgram/mL | 4 microgram/mL | <0.06 microgram/mL | ≤0.06 microgram/mL | ≤0.06 microgram/mL | >64 microgram/mL | ≤0.06 microgram/mL | ≤0.06 microgram/mL | >64 microgram/mL | 2 microgram/mL | low microgram/mL MICs | ≤0.06 microgram/mL | ≤0.06 microgram/mL | ≤0.06 microgram/mL | Mimimum Inhibitory Concentrations, SHV-1 ([10]; isogenic E. coli strain, SHV-1, CAMH broth, 20 μM Apo-Transferrin, 37° C., 18 hours): 0.13 microgram/mL; Mimimum Inhibitory Concentrations, KPC-3 ([11]; isogenic E. coli strain, KPC-3, CAMH broth, 20 μM Apo-Transferrin, 37° C., 18 hours): 0.13 microgram/mL; Mimimum Inhibitory Concentrations, KPC-2 ([12]; isogenic E. coli strain, KPC-2, CAMH broth, 20 μM Apo-Transferrin, 37° C., 18 hours): 0.25 microgram/mL; Minimum Inhibitory Concentrations, PA-RR-(purple Fre D) [13]: 0.5 microgram/mL; Minimum Inhibitory Concentrations, PA-RR-(G8062859) [14]: 0.5 microgram/mL; Mimimum Inhibitory Concentrations, IMP-1 ([16]; isogenic E. coli strain, IMP-1, CAMH broth, 20 μM Apo-Transferrin, 37° C., 18 hours): 0.13 microgram/mL; Minimum Inhibitory Concentrations, EC (URMC-2) [19]: ≤0.06 microgram/mL; Minimum Inhibitory Concentrations, EC(ATCC NDM-1) [20]: >64 microgram/mL; Minimum Inhibitory Concentrations, EC (URMC-1) [21]: ≤0.06 microgram/mL; Minimum Inhibitory Concentrations, EC(JMI OXA-48) [22]: 0.5 microgram/mL; Minimum Inhibitory Concentrations, EC (URMC-3) [23]: 0.5 microgram/mL; Minimum Inhibitory Concentrations, EC(KB2 CTX-M-15) [24]: 0.5 microgram/mL; Minimum Inhibitory Concentrations, EC(KB1 CTX-M-15) [26]: 0.13 microgram/mL |
| CC(C)(O/N=C(\C(=O)N[C@@H]1C(=O)N2C(C(=O)O)=C(C=Cc3ccc(C[N+]4(C)CCc5ccc(O)c(O)c5C4)cc3)CS[C@H]12)c1csc(N)n1)C(=O)O (mixture of isomers) [Compound 442, 2-(4-((E/Z)-2-((6R,7R)-7-((Z)-2-(2-aminothiazol-4-yl)-2-(((2-carboxypropan-2-yl)oxy)imino)acetamido)-2-carboxy-8-oxo-5-thia-1-azabicyclo[4.2.0]oct-2-en-3 yl)vinyl)benzyl)-7,8-dihydroxy-2-methyl-1,2,3,4-tetrahydroisoquinolin-2-ium] | 0.5 microgram/mL | 64 microgram/mL | 0.5 microgram/mL | 0.25 microgram/mL | ≤0.06 microgram/mL | >64 microgram/mL | 0.25 microgram/mL | 0.13 microgram/mL | >64 microgram/mL | 4 microgram/mL | low microgram/mL MICs | ≤0.06 microgram/mL | 0.13 microgram/mL | 0.25 microgram/mL | MIC ([10]; Escherichia coli, 18 h, read-out: Mimimum Inhibitory Concentrations, SHV-1): 0.5 µg/mL; MIC ([11]; Escherichia coli, 18 h, read-out: Mimimum Inhibitory Concentrations, KPC-3): 1 µg/mL; MIC ([12]; Escherichia coli, 18 h, read-out: Mimimum Inhibitory Concentrations, KPC-2): 2 µg/mL; MIC ([13]; Pseudomonas aeruginosa, read-out: Minimum Inhibitory Concentrations, PA-RR-(purple Fre D)): 1 µg/mL; MIC ([14]; Pseudomonas aeruginosa, read-out: Minimum Inhibitory Concentrations, PA-RR-(G8062859)): 0.25 µg/mL; MIC ([19]; Escherichia coli, read-out: Minimum Inhibitory Concentrations, EC (URMC-2)): 0.13 µg/mL; MIC ([20]; Escherichia coli, read-out: Minimum Inhibitory Concentrations, EC(ATCC NDM-1)): > 64 µg/mL; MIC ([21]; Escherichia coli, read-out: Minimum Inhibitory Concentrations, EC (URMC-1)): 0.25 µg/mL; MIC ([22]; Escherichia coli, read-out: Minimum Inhibitory Concentrations, EC(JMI OXA-48)): 4 µg/mL; MIC ([23]; Escherichia coli, read-out: Minimum Inhibitory Concentrations, EC (URMC-3)): 0.13 µg/mL; MIC ([24]; Escherichia coli, read-out: Minimum Inhibitory Concentrations, EC(KB2 CTX-M-15)): 32 µg/mL; MIC ([26]; Escherichia coli, read-out: Minimum Inhibitory Concentrations, EC(KB1 CTX-M-15)): 32 µg/mL |
